These results are taken from article PMC7024361, “Vaginal Polyelectrolyte Layer-by-Layer Films Based on Chitosan Derivatives and Eudragit® S100 for pH Responsive Release of Tenofovir” (Marine Drugs, 2020).

Data set [1] in a line: Material cytotoxicity, CellTiter Glo. The data set is classed as cell-based. As to conditions: human, maximum concentration tested 1000 µg/mL. The protocol: To study cell toxicity, the materials were incubated in culture media at 37 °C and 5% CO2 for 48 h before the assay to ensure that any potential toxic component would be present in the dilutions to be tested. The cell culture was then treated with a suspension of base 5 serial dilutions of the most concentrated suspension (1000 µg/mL). Experiments were performed in lymphoblastic (MT-2) and macrophage-monocyte (THP-1) derived cell lines to evaluate toxicity on the immune cells present in vaginal or uterine mucosae, and in a uterine epithelial cell line (HEC-1A) to evaluate the potential damage to mucosal integrity (Figure 12).
Three human cell lines were used: a lymphoblastic cell line, MT-2 [65], a macrophage-monocyte derived cell line, THP-1 (ATCC® TIB-202) and a uterine/endometrial epithelial cell line, HEC-1A (ATCC® HTB-112™) (kindly provided by Maria Angeles Muñoz). All the cell lines were cultured in RPMI 1640 medium supplemented with 10 % (v/v) fetal bovine serum, 2 mM L-glutamine and […] streptomycin (all Whittaker M.A. Bio-Products, Walkerville, MD, USA) at 37 °C in a humidified atmosphere of 5 % CO2. To detach the HEC-1-A cells, the medium was removed and the flask was rinsed during 10 min with 1 to 2 mL of trypsin 0.25%—EDTA 0.03% solution. The medium was replaced every three days after cell centrifugation at 1500 rpm for 5 min.
Cell toxicity was measured using the CellTiter Glo kit (Promega, Madison, WI, USA). Cells were incubated in 96-well plates at a density of […] cells per well (MT-2 and THP-1) and 2 × 10^4 (HEC-1A) in complete medium. To assess the cytotoxic effect, cells were exposed to fresh medium containing different concentrations of lactic acid, tartaric acid, citric acid, TEC and ES100 suspensions, or the same concentration of PBS 1× as control. Experiments were performed in triplicate and the culture was maintained at 37 °C and 5% CO2 humidified atmosphere for 48 h. A standard method was followed to suspend the materials in PBS 1× [66]. After incubation for 48 h, the medium was removed from cell cultures and 50 µL of CellTiter Glo reactive was added to each well on the plate. Relative luminescence units (RLUs) were measured in a luminometer (Sirius, Berthold Detection Systems). Cytotoxic concentration 50 (CC50) values were calculated using GraphPad Prism Software (non-linear regression, log inhibitor versus response). The results of the cytotoxic assay are shown as the average of at least three individual experiments.

A further data set has as its system HIV. Further details: method as in PMID 22964245. As to conditions: women; cited from earlier work.
Where [2] appears, read: HEC-1A uterine/endometrial epithelial cells.
The mark [3] stands for this setting: MT-2 lymphoblastic cells, MT-2, 48 h.
[4] abbreviates: THP-1 macrophage-monocyte derived cells, THP1, 48 h.

Converted amounts (≈) assume the structure as drawn. Bounds are passed on as bounds.

Turning to `O=C(O)C(O)C(O)C(=O)O` (stereo not drawn) [Tartaric acid, L(+)-Tartaric acid], the CC50 – broadly, the concentration that lowers cell viability or growth by half – at 48 h in data set [1] (setting [2]) was approximately 200 mg/L (≈ 1.33 mM); in data set [1] (setting [3]), more than 1000 mg/L; in data set [1] (setting [4]) it was more than 1000 mg/L.

Turning to `C[C@H](Cn1cnc2c(N)ncnc21)OCP(=O)(O)O` [TFV, Tenofovir], in the data set on HIV, the “cervicovaginal fluid concentration that confers protection against HIV” value is on record as 1000 ng/mL.

For `CC(O)C(=O)O` (stereo not drawn) [Lactic acid, L(+)-Lactic acid], the CC50 at 48 h in data set [1] (setting [2]), in data set [1] (setting [3]) and in data set [1] (setting [4]) was more than 1000 mg/L each time.

For the compound `CCOC(=O)CC(O)(CC(=O)OCC)C(=O)OCC` [TEC, triethylcitrate], the values for the CC50 at 48 h in data set [1] (setting [2]), in data set [1] (setting [3]) and in data set [1] (setting [4]) were more than 1000 mg/L, approximately 1000 mg/L (≈ 3.62 mM) and more than 1000 mg/L, respectively.

With `O=C(O)CC(O)(CC(=O)O)C(=O)O` [Citric acid, citric acid], the values for the CC50 at 48 h in data set [1] (setting [2]), in data set [1] (setting [3]) and in data set [1] (setting [4]) were more than 1000 mg/L, more than 1000 mg/L and approximately 1000 mg/L (≈ 5.2 mM), respectively.
